Measurements published in ChEMBL document CHEMBL5321256, “Tolypocaibols: Antibacterial Lipopeptaibols from a Tolypocladium sp. Endophyte of the Marine Macroalga Spongomorpha arcta” (2023).
Values after ≈ are worked out from the molar mass of the structure shown. Square brackets hold non-standard residues; d marks the D form. Peptide text beside a SMILES is read from it. * marks the point of attachment. Pro(4S-Me) = C[C@@H]1CN[C@H](C(=O)O)C1; Decanoyl = CCCCCCCCCC(=O)*; Valol = CC(C)[C@@H](CO)N*; Aib = CC(C)(N)C(=O)O

Tests used:
Assay type in all cases: functional
Staphylococcus aureus [1] = assay: Antibacterial activity against methicillin-susceptible Staphylococcus aureus measured after 18 to 20 hrs by broth microdilution method; settings: time 18-20 hrs
Brucella anthropi = assay: Antibacterial activity against Ochrobactrum anthropi measured after 18 to 20 hrs by broth microdilution method; settings: time 18-20 hrs
Pseudomonas aeruginosa = assay: Antibacterial activity against Pseudomonas aeruginosa measured after 18 to 20 hrs by broth microdilution method; settings: time 18-20 hrs
Klebsiella aerogenes = assay: Antibacterial activity against Klebsiella aerogenes measured after 18 to 20 hrs by broth microdilution method; settings: time 18-20 hrs
[2] = tested on: Mycolicibacterium smegmatis; assay: Antibacterial activity against Mycobacterium smegmatis ATCC 70084 by resazurin microplate assay
Shigella sonnei = assay: Antibacterial activity against Shigella sonnei measured after 18 to 20 hrs by broth microdilution method; settings: time 18-20 hrs
Staphylococcus aureus [3] = assay: Antibacterial activity against methicillin-resistant Staphylococcus aureus measured after 18 to 20 hrs by broth microdilution method; settings: time 18-20 hrs
[4] = tested on: Mycobacterium tuberculosis; assay: Antibacterial activity against Mycobacterium tuberculosis ATCC 25177 by resazurin microplate assay
Vibrio cholerae = assay: Antibacterial activity against Vibrio cholerae measured after 18 to 20 hrs by broth microdilution method; settings: time 18-20 hrs
Klebsiella pneumoniae = assay: Antibacterial activity against Klebsiella pneumoniae measured after 18 to 20 hrs by broth microdilution method; settings: time 18-20 hrs
[5] = tested on: Staphylococcus epidermidis; assay: Antibacterial activity against Staphylococcus epidermidis measured after 18 to 20 hrs by broth microdilution method; settings: time 18-20 hrs
[6] = tested on: Providencia alcalifaciens; assay: Antibacterial activity against Providencia alcalifaciens measured after 18 to 20 hrs by broth microdilution method; settings: time 18-20 hrs
Enterococcus faecium = assay: Antibacterial activity against Enterococcus faecium measured after 18 to 20 hrs by broth microdilution method; settings: time 18-20 hrs
[7] = tested on: Yersinia pseudotuberculosis; assay: Antibacterial activity against Yersinia pseudotuberculosis measured after 18 to 20 hrs by broth microdilution method; settings: time 18-20 hrs
Enterococcus faecalis = assay: Antibacterial activity against Enterococcus faecalis measured after 18 to 20 hrs by broth microdilution method; settings: time 18-20 hrs
Bacillus subtilis = assay: Antibacterial activity against Bacillus subtilis measured after 18 to 20 hrs by broth microdilution method; settings: time 18-20 hrs
Listeria ivanovii = assay: Antibacterial activity against Listeria ivanovii ATCC BAA-139 measured after 18 to 20 hrs by broth microdilution method; settings: time 18-20 hrs
Escherichia coli = assay: Antibacterial activity against Escherichia coli measured after 18 to 20 hrs by broth microdilution method; settings: time 18-20 hrs
Salmonella enterica = assay: Antibacterial activity against Salmonella enterica measured after 18 to 20 hrs by broth microdilution method; settings: time 18-20 hrs

CCCCCCCCCC(=O)NC(C)(C)C(=O)N1C[C@@H](C)C[C@H]1C(=O)N[C@@H](Cc1ccccc1)C(=O)NC(C)(C)C(=O)N[C@@H](CCC(N)=O)C(=O)N[C@@H](CCC(N)=O)C(=O)NC(C)(C)C(=O)NC(C)(C)C(=O)N[C@@H](CCC(N)=O)C(=O)N[C@@H](CC(C)C)C(=O)N[C@H](CO)C(C)C (Decanoyl-[Aib][Pro(4S-Me)]F[Aib]QQ[Aib][Aib]QL-Valol) was tested. Which MIC (Staphylococcus aureus [1]) did it give?
Its MIC is 4 µM (≈ 5.41 µg/mL).

And the MIC (Brucella anthropi)?
The MIC was greater than 128 µM.

What about the MIC (Pseudomonas aeruginosa) of the same compound?
The MIC was greater than 128 µM.

And the MIC (Klebsiella aerogenes)?
The MIC was greater than 128 µM.

And the MIC [2]?
The MIC was 80 µM (≈ 108 µg/mL).

What about the MIC (Shigella sonnei) of the same compound?
Its MIC is greater than 128 µM.

What about the MIC (Staphylococcus aureus [3]) of the same compound?
Its MIC is 16 µM (≈ 21.7 µg/mL).

What about the MIC [4] of the same compound?
Its MIC is 40 µM (≈ 54.1 µg/mL).

And the MIC (Vibrio cholerae)?
Its MIC is greater than 128 µM.

What about the MIC (Klebsiella pneumoniae) of the same compound?
The MIC was greater than 128 µM.

What about the MIC [5] of the same compound?
Its MIC is greater than 128 µM.

And the MIC [6]?
The MIC was greater than 128 µM.

And the MIC (Enterococcus faecium)?
Its MIC is 16 µM (≈ 21.7 µg/mL).

And the MIC [7]?
The MIC was greater than 128 µM.

And the MIC (Enterococcus faecalis)?
The MIC was 16 µM (≈ 21.7 µg/mL).

What about the MIC (Bacillus subtilis) of the same compound?
The MIC was 4 µM (≈ 5.41 µg/mL).

What about the MIC (Listeria ivanovii) of the same compound?
Its MIC is 8 µM (≈ 10.8 µg/mL).

What about the MIC (Escherichia coli) of the same compound?
The MIC was greater than 128 µM.

And the MIC (Salmonella enterica)?
Its MIC is greater than 128 µM.

What does the source list for CCCCCCCCCC(=O)NC(C)(C)C(=O)N1CCC[C@H]1C(=O)N[C@@H](Cc1ccccc1)C(=O)NC(C)(C)C(=O)N[C@@H](CCC(N)=O)C(=O)N[C@@H](CCC(N)=O)C(=O)NC(C)(C)C(=O)NC(C)(C)C(=O)N[C@@H](CCC(N)=O)C(=O)N[C@@H](CC(C)C)C(=O)N[C@H](CO)C(C)C (Decanoyl-[Aib]PF[Aib]QQ[Aib][Aib]QL-Valol)?
MIC (Staphylococcus aureus [1]): 8 µM (≈ 10.7 µg/mL); MIC (Brucella anthropi): > 128 µM; MIC (Pseudomonas aeruginosa): > 128 µM; MIC (Klebsiella aerogenes): > 128 µM; MIC [2]: 80 µM (≈ 107 µg/mL); MIC (Shigella sonnei): > 128 µM; MIC (Staphylococcus aureus [3]): 16 µM (≈ 21.4 µg/mL); MIC [4]: 20 µM (≈ 26.8 µg/mL); MIC (Vibrio cholerae): > 128 µM; MIC (Klebsiella pneumoniae): > 128 µM; MIC [5]: > 128 µM; MIC [6]: > 128 µM; MIC (Enterococcus faecium): 32 µM (≈ 42.9 µg/mL); MIC [7]: > 128 µM; MIC (Enterococcus faecalis): 32 µM (≈ 42.9 µg/mL); MIC (Bacillus subtilis): 8 µM (≈ 10.7 µg/mL); MIC (Listeria ivanovii): 8 µM (≈ 10.7 µg/mL); MIC (Escherichia coli): > 128 µM; MIC (Salmonella enterica): > 128 µM

What does the source list for O=C(O)c1cn(C2CC2)c2cc(N3CCNCC3)c(F)cc2c1=O [CIPROFLOXACIN]?
MIC (Brucella anthropi): 0.83 µM (≈ 0.275 µg/mL); MIC (Pseudomonas aeruginosa): 0.5 µM (≈ 0.166 µg/mL); MIC (Klebsiella aerogenes): 2.83 µM (≈ 0.938 µg/mL); MIC [2]: 3.8 µM (≈ 1.26 µg/mL); MIC (Shigella sonnei): 0.08 µM (≈ 0.0265 µg/mL); MIC (Staphylococcus aureus [3]): 64 µM (≈ 21.2 µg/mL); MIC (Vibrio cholerae): 0.02 µM (≈ 0.00663 µg/mL); MIC (Klebsiella pneumoniae): 2 µM (≈ 0.663 µg/mL); MIC [5]: 1.33 µM (≈ 0.441 µg/mL); MIC [6]: 0.13 µM (≈ 0.0431 µg/mL); MIC (Enterococcus faecium): 0.67 µM (≈ 0.222 µg/mL); MIC [7]: 0.14 µM (≈ 0.0464 µg/mL); MIC (Enterococcus faecalis): 1 µM (≈ 0.331 µg/mL); MIC (Bacillus subtilis): 0.38 µM (≈ 0.126 µg/mL); MIC (Listeria ivanovii): 8 µM (≈ 2.65 µg/mL); MIC (Escherichia coli): 0.17 µM (≈ 0.0563 µg/mL); MIC (Salmonella enterica): 0.05 µM (≈ 0.0166 µg/mL)

What does the source list for C=C[C@@H]1C[C@H](C)C[C@H](C)[C@H]1c1c(O)ccn(O[C@@H]2C(C(=O)OC)=C[C@@H](O)[C@@H](O)[C@H]2O)c1=O?
MIC (Staphylococcus aureus [1]): 128 µM (≈ 57.5 µg/mL); MIC (Brucella anthropi): 128 µM (≈ 57.5 µg/mL); MIC (Pseudomonas aeruginosa): > 128 µM; MIC (Klebsiella aerogenes): > 128 µM; MIC [2]: > 250 µM; MIC (Shigella sonnei): 128 µM (≈ 57.5 µg/mL); MIC (Staphylococcus aureus [3]): 128 µM (≈ 57.5 µg/mL); MIC [4]: 250 µM (≈ 112 µg/mL); MIC (Vibrio cholerae): 128 µM (≈ 57.5 µg/mL); MIC (Klebsiella pneumoniae): > 128 µM; MIC [5]: 128 µM (≈ 57.5 µg/mL); MIC [6]: 128 µM (≈ 57.5 µg/mL); MIC (Enterococcus faecium): 128 µM (≈ 57.5 µg/mL); MIC [7]: 128 µM (≈ 57.5 µg/mL); MIC (Enterococcus faecalis): 128 µM (≈ 57.5 µg/mL); MIC (Bacillus subtilis): 128 µM (≈ 57.5 µg/mL); MIC (Listeria ivanovii): 16 µM (≈ 7.19 µg/mL); MIC (Escherichia coli): 128 µM (≈ 57.5 µg/mL); MIC (Salmonella enterica): 128 µM (≈ 57.5 µg/mL)

Which results are given for CO[C@H]1/C=C/O[C@@]2(C)Oc3c(C)c(O)c4c(O)c(c(/C=N/N5CCN(C)CC5)c(O)c4c3C2=O)NC(=O)/C(C)=C\C=C\[C@H](C)[C@H](O)[C@@H](C)[C@@H](O)[C@@H](C)[C@H](OC(C)=O)[C@@H]1C [RIFAMPIN]?
MIC (Staphylococcus aureus [1]): 0.01 µM (≈ 0.00823 µg/mL); MIC (Brucella anthropi): 4 µM (≈ 3.29 µg/mL); MIC (Pseudomonas aeruginosa): 53.3 µM (≈ 43.9 µg/mL); MIC (Klebsiella aerogenes): 8 µM (≈ 6.58 µg/mL); MIC (Shigella sonnei): 1.67 µM (≈ 1.37 µg/mL); MIC (Staphylococcus aureus [3]): 2 µM (≈ 1.65 µg/mL); MIC [4]: 0.062 µM (≈ 0.051 µg/mL); MIC (Vibrio cholerae): > 128 µM; MIC (Klebsiella pneumoniae): 16 µM (≈ 13.2 µg/mL); MIC [5]: 0.02 µM (≈ 0.0165 µg/mL); MIC [6]: 8 µM (≈ 6.58 µg/mL); MIC (Enterococcus faecium): 21.3 µM (≈ 17.5 µg/mL); MIC [7]: 10.7 µM (≈ 8.81 µg/mL); MIC (Enterococcus faecalis): 1 µM (≈ 0.823 µg/mL); MIC (Bacillus subtilis): 0.19 µM (≈ 0.156 µg/mL); MIC (Listeria ivanovii): 0.02 µM (≈ 0.0165 µg/mL); MIC (Escherichia coli): 4 µM (≈ 3.29 µg/mL); MIC (Salmonella enterica): 2 µM (≈ 1.65 µg/mL)
